According to US8703961B2, “Thiazole derivatives for the treatment of diseases such as cancer” (Merck Patent GmbH, priority 2009, dated 2014):

Key:
Assay type in all cases: biochemical
MAPK8 = MAPK8 (Homo sapiens, UniProt P45983); experiment: filter binding kinase assay; parameters: purchased; conditions: derived from % inhibition at 1 μM; first MAPK8 line
Description: (§1) All kinase assays were carried out using the Multidrop 384 from Thermo-Fisher at room temperature in a total assay volume of 25.5 μl. 15 μl of an enzyme mix comprising enzyme and substrate in buffer are added to the test batch comprising either 0.5 μl of test substance, DMSO control or empty container. Test substances are pre-incubated in the presence of the enzyme and substrate for 5 minutes before the reaction is initiated by addition of 10 μl of ATP (concentration kinase-dependent of […]). The reaction is terminated by addition of 5 μl of orthophosphoric acid (50 mM). The test containers are then transferred onto P81 Unifilter plates by means of a “Packard Harvester” and dried in air. The dry Unifilter plates are sealed after the addition of MicroScint O, and the radioactivity is determined in a Packard Topcount NXT.

NUAK1 = target: T1, NUAK1 (Homo sapiens, UniProt O60285); experiment: filter binding assay of NUAK1 inhibition; conditions: for IC50: derived from % inhibition at 1 μM; for remaining activity at 1 µM: read-out: residual kinase activity NUAK1
T1 construct: purchased
T1 sequence (O60285 1-661): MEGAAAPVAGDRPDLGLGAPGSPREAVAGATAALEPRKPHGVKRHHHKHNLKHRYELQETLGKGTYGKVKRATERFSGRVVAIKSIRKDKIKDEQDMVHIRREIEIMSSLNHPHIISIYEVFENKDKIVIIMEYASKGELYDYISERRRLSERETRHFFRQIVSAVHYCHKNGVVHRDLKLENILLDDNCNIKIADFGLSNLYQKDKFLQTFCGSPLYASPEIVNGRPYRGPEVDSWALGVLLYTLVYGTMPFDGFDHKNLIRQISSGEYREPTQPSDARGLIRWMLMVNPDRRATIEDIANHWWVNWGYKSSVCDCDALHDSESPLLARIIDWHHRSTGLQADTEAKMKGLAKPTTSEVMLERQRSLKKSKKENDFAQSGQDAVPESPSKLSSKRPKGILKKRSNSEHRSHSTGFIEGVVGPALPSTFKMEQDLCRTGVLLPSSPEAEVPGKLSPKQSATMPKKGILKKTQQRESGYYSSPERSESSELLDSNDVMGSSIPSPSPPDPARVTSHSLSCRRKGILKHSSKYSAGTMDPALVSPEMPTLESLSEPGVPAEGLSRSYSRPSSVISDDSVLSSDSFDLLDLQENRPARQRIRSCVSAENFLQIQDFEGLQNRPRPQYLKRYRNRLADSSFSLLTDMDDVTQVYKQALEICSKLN
Description: as §1
NUAK1 (5-20 mU diluted in 50 mM Tris pH 7.5, 0.1 mM EGTA, 0.1% β-mercaptoethanol, 1 mg/ml of BSA) is tested against ALNRTSSDSALHRRR as substrate. The final volume of 25.5 μl contains 50 mM Tris pH 7.5, 0.1 mM EGTA, 0.3 mM ALNRTSSDSALHRRR, 10 mM magnesium acetate and 0.02 mM [^33P-γ-ATP] (50-1000 cpm/pmole) and is incubated at room temperature for 30 min. Tests are terminated by the addition of 5 μl of a 0.5 M (3%) orthophosphoric acid soln. and then transferred onto P81 Unifilter plates and washed with 50 mM orthophosphoric acid buffer.

PDPK1 = target: T2, PDPK1 (Homo sapiens, UniProt O15530); experiment: filter binding kinase assay (second PDPK1 line); conditions: derived from % inhibition at 1 μM
T2 construct: purchased
T2 sequence (O15530 1-556): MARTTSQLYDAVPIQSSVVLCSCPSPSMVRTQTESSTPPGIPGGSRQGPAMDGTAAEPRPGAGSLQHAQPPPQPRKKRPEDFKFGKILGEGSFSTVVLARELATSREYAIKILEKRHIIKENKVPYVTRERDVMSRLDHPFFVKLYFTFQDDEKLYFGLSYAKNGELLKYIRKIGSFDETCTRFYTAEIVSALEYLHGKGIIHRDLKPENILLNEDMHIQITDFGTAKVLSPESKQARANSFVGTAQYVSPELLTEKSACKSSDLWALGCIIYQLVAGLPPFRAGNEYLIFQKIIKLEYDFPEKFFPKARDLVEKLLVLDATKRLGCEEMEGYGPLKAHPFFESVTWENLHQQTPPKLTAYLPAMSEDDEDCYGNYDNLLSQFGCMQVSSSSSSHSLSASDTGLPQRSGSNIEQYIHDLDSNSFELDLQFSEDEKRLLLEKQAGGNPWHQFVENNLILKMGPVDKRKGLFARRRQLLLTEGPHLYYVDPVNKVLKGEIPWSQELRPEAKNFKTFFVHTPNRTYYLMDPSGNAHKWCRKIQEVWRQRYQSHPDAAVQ
Description: as §1

AKT1 = target: T3, AKT1 (Homo sapiens, UniProt P31749); experiment: filter binding kinase assay; conditions: derived from % inhibition at 1 μM
T3 construct: purchased
Description: as §1

MAP2K1 (MKK1) = target: T4, MAP2K1 (MKK1) (Homo sapiens, UniProt Q02750); experiment: filter binding kinase assay; conditions: for IC50: derived from % inhibition at 1 μM
T4 construct: purchased
Description: as §1

BRSK1 = target: T5, BRSK1 (Homo sapiens, UniProt Q8TDC3); experiment: filter binding kinase assay; conditions: derived from % inhibition at 1 μM
T5 construct: purchased
T5 sequence (Q8TDC3 1-778): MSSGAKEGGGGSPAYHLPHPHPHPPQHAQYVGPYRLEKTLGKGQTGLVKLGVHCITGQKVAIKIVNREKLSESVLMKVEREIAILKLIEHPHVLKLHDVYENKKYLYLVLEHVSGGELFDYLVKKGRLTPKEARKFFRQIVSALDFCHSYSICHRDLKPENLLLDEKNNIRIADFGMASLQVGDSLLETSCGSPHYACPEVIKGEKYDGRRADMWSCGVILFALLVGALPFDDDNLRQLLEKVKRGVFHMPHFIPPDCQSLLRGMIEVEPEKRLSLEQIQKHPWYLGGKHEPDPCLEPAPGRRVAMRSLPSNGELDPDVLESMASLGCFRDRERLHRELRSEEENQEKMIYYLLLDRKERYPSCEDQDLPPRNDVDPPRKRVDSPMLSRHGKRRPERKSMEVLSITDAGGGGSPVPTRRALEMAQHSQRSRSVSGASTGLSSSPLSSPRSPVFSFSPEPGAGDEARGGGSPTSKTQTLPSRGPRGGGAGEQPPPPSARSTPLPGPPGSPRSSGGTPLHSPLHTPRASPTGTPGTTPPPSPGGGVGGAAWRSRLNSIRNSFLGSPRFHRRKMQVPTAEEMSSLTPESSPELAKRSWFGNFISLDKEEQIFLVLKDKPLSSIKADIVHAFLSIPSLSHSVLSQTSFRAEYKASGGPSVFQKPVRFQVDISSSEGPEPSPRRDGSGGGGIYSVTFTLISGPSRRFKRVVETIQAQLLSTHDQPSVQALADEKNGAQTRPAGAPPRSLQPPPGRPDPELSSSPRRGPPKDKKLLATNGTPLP
Description: as §1

CSNK2A1 (CK2) = target: T6, CSNK2A1 (CK2) (Homo sapiens, UniProt P68400); experiment: filter binding kinase assay; conditions: for IC50: derived from % inhibition at 1 μM
T6 construct: purchased
Description: as §1

T3 sequence (P31749 whole entry, species assumed): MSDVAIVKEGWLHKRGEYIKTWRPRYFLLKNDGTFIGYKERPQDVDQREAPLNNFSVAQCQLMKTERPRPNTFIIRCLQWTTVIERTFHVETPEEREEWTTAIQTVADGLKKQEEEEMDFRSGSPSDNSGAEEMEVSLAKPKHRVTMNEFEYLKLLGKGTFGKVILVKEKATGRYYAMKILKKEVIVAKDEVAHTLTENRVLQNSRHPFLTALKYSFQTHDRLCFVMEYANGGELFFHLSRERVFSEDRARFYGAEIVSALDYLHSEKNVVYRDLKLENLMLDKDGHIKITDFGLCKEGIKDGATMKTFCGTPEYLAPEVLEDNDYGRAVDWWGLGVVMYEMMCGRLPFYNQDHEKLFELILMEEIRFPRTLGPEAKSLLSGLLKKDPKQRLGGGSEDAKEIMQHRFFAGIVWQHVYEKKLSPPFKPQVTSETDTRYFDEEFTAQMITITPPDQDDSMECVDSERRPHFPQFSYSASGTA
Chain of MAPK8 (P45983 whole entry, species assumed): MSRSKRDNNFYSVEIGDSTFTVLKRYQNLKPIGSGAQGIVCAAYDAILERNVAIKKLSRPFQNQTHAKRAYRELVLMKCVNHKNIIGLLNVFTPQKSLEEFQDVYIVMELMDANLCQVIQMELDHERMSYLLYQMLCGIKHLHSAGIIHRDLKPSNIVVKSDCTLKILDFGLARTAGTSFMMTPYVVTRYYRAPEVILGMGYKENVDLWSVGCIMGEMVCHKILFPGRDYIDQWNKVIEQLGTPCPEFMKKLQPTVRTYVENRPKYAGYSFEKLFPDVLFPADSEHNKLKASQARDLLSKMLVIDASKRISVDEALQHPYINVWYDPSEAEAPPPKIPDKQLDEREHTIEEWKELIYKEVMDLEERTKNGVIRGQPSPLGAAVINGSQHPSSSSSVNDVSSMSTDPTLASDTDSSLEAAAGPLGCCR
T6 sequence (P68400 whole entry, species assumed): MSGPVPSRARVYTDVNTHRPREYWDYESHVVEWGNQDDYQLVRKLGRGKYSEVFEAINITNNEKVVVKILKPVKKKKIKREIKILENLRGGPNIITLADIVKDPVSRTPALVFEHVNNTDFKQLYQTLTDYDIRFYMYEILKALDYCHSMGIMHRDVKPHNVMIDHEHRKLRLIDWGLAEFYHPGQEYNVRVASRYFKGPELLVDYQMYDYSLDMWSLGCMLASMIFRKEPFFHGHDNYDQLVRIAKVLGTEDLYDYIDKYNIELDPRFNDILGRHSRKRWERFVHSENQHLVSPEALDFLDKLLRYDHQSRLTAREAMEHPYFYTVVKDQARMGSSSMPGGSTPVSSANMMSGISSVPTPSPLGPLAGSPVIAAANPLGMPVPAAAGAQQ
T4 sequence (Q02750 whole entry, species assumed): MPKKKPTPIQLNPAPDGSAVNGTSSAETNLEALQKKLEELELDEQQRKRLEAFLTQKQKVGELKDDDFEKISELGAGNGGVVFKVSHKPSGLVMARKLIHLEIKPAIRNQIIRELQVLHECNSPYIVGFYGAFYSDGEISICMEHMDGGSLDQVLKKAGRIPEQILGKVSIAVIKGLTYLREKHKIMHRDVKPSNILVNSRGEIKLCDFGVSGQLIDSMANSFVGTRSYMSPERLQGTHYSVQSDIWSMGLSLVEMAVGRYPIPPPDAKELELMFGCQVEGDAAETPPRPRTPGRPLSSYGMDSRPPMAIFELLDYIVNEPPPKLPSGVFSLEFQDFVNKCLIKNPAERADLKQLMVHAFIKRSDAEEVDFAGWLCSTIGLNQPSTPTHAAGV

Compound: CC(C)(C)OC(=O)Nc1ncsc1C#CCN1C(=O)c2ccccc2C1=O [Compound A26, tert-butyl{5-[3-(1,3-dioxo-1,3-dihydroisoindol-2-yl)prop-1-ynyl]-thiazol-4-yl}carbamate]
- IC50 (MAPK8): 10 to 100 µM
- IC50 (NUAK1): 10 to 1000 nM
- remaining activity at 1 µM (NUAK1): 24%
- IC50 (PDPK1): 10000 to 100000 nM
- IC50 (AKT1): > 1000 nM
- IC50 (MAP2K1 (MKK1)): 1000 to 10000 nM
- IC50 (BRSK1): > 1000 nM
- IC50 (CSNK2A1 (CK2)): 10000 to 100000 nM

Compound: Nc1ncsc1C#Cc1cccc(O)c1 [Compound A27, 3-(4-aminothiazol-5-ylethynyl)phenol]
- IC50 (MAPK8): 1 to 10 µM
- IC50 (NUAK1): 10 to 1000 nM
- remaining activity at 1 µM (NUAK1): 49%
- IC50 (PDPK1): > 1000 nM
- IC50 (AKT1): > 1000 nM
- IC50 (MAP2K1 (MKK1)): > 1000 nM
- IC50 (BRSK1): 1000 to 10000 nM
- IC50 (CSNK2A1 (CK2)): > 1000 nM

Compound: c1ccc(Cc2c[nH]c3ncsc23)cc1 [Compound A7, 6-benzyl-4H-pyrrolo[2,3-d]thiazole]
- IC50 (MAPK8): 1 to 10 µM
- IC50 (NUAK1): 10 to 1000 nM
- remaining activity at 1 µM (NUAK1): 27%
- IC50 (PDPK1): > 1000 nM
- IC50 (AKT1): > 1000 nM
- IC50 (MAP2K1 (MKK1)): 1000 to 10000 nM
- IC50 (BRSK1): 1000 to 10000 nM
- remaining activity at 1 µM (CSNK2A1 (CK2); read-out: residual kinase activity CK2): 53%

Compound: CC(C)(C)OC(=O)Nc1nc(-c2ccncc2)sc1C#CCN1CCOCC1 [Compound A25, tert-butyl[5-(3-morpholin-4-ylprop-1-ynyl)-2-pyridin-4-ylthiazol-4-yl]-carbamate]
- IC50 (MAPK8): > 1 µM
- IC50 (NUAK1): 10000 to 100000 nM
- IC50 (PDPK1): > 1000 nM
- IC50 (AKT1): > 1000 nM
- IC50 (MAP2K1 (MKK1)): 1000 to 10000 nM
- IC50 (BRSK1): > 1000 nM
- IC50 (CSNK2A1 (CK2)): > 1000 nM

Compound: Nc1ncsc1C#Cc1cnc2[nH]ccc2c1 [Compound A22, 5-(1H-pyrrolo[2,3-b]pyridin-5-ylethynyl)thiazol-4-ylamine]
- IC50 (NUAK1): 10 to 1000 nM
- remaining activity at 1 µM (NUAK1): 16%
- IC50 (PDPK1): 1000 to 10000 nM
- IC50 (AKT1): 10000 to 100000 nM
- IC50 (MAP2K1 (MKK1)): 10 to 1000 nM
- remaining activity at 1 µM (MAP2K1 (MKK1); read-out: residual kinase activity MKK1): 43%
- IC50 (BRSK1): 1000 to 10000 nM
- IC50 (CSNK2A1 (CK2)): > 1000 nM
